Test systems include HCC 2998; UACC-257; EKVX; RPMI-8226; SK-OV-3; NCI-H522; T47D; TK-10; MDA-MB-231; OVCAR-3; HT-29; SF-539; MDA-MB-435; OVCAR-5; NCI-H460; HCT-15; U-251; IGROV-1; ACHN; Hs-578T.
Assay in all cases: NCI-60 cell line screen, 48 h

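Assay format: 96-well plates, 48-hour exposure. The concentration for 50% growth inhibition is given as GI50.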 Calls of active or inactive are those of the source. Cut-off read from the data, not from the text of the source: active = GI50 up to about 1.1 µM and inactive = higher.

`O=C(O)CCCCCNC(=O)CCC(CN(CC(=O)OCc1ccccc1)CC(=O)OCc1ccccc1)N(CC(=O)OCc1ccccc1)CC(=O)OCc1ccccc1` (stereo not given): the GI50 in the assay with HCC 2998 is 15.2 µM (inactive); in the assay on UACC-257 it was 18.8 µM (inactive); with EKVX it was 22 µM (inactive); in the assay on RPMI-8226 it was 10.3 µM (inactive); in the assay on SK-OV-3, 13.3 µM (inactive); in the assay with NCI-H522, 19.2 µM (inactive). Also, the GI50 in the assay with T47D was 17.2 µM (inactive); in the assay on TK-10 it was 16.3 µM (inactive); in the assay on MDA-MB-231, 19.5 µM (inactive); in the assay with OVCAR-3, 17.3 µM (inactive); with HT-29, 17.9 µM (inactive); with SF-539, 20.7 µM (inactive). The GI50 was 19.4 µM (inactive) in the assay with MDA-MB-435; 18.2 µM (inactive) in the assay with OVCAR-5; 30.4 µM (inactive) in the assay on NCI-H460; 17.9 µM in the assay on HCT-15; 22 µM (inactive) in the assay with U-251; 17.6 µM (inactive) with IGROV-1. The GI50 with ACHN was 18.1 µM (inactive); in the assay on Hs-578T it was 20.5 µM (inactive).
With `C=C(C)C(=O)O[C@@H]1C/C(C)=C\[C@H](OC(C)=O)C[C@](C)(O)/C=C2/OC(=O)C(COC(C)=O)=C21`, the GI50 was 0.399 µM (active) in the assay with HCC 2998; 1.69 µM (inactive) in the assay on UACC-257; 0.962 µM (active) in the assay on EKVX; 0.314 µM (active) in the assay with RPMI-8226; 6.12 µM (inactive) with SK-OV-3; 0.196 µM (active) with NCI-H522. Besides, the GI50 with T47D was 0.834 µM (active); with TK-10, 1.5 µM (inactive); with MDA-MB-231, 0.662 µM (active); in the assay on OVCAR-3 it was 0.726 µM (active); in the assay with HT-29, 0.237 µM (active); with SF-539 it was 1.28 µM (inactive). For the same molecule, the GI50 was 0.845 µM (active) in the assay on MDA-MB-435; 1.99 µM (inactive) in the assay with OVCAR-5; 0.695 µM (active) in the assay with NCI-H460; 0.212 µM with HCT-15; 1.09 µM (active) in the assay with U-251; 0.834 µM (active) in the assay on IGROV-1. Also, the GI50 is 0.556 µM (active) in the assay on ACHN and 2.15 µM (inactive) in the assay on Hs-578T.
Turning to `COC(=O)C1=C(C)N2[C@H](C(=O)O)CO[C@@]2(C)[C@H](C(=O)OC)[C@H]1c1cccc([N+](=O)[O-])c1`, the GI50 in the assay with HCC 2998, in the assay with UACC-257, in the assay on EKVX, in the assay on RPMI-8226, in the assay with SK-OV-3 and with NCI-H522 was > 100 µM (inactive) each time. The GI50 in the assay on T47D, in the assay with TK-10, in the assay on MDA-MB-231, with OVCAR-3, in the assay on HT-29 and in the assay on SF-539 was > 100 µM (inactive) in each case. The GI50 is > 100 µM (inactive) with MDA-MB-435; > 100 µM (inactive) in the assay with OVCAR-5; > 100 µM (inactive) in the assay on NCI-H460; greater than 100 µM in the assay with HCT-15; > 100 µM (inactive) with U-251; > 100 µM (inactive) in the assay on IGROV-1. Besides, the GI50 with ACHN and in the assay with Hs-578T was > 100 µM (inactive) throughout.
For the molecule `Cc1c(C(=O)NNc2ccccc2)n2c(S)nnc2c2ccccc12`, the GI50 with HCC 2998 was 71.8 µM (inactive); in the assay on UACC-257 it was > 100 µM (inactive); in the assay on EKVX it was > 100 µM (inactive); in the assay on RPMI-8226, 58.2 µM (inactive); in the assay with SK-OV-3, > 100 µM (inactive); in the assay on NCI-H522, > 100 µM (inactive). For the same molecule, the GI50 was 40.5 µM (inactive) in the assay on T47D; > 100 µM (inactive) in the assay on TK-10; > 100 µM (inactive) in the assay with MDA-MB-231; > 100 µM (inactive) with OVCAR-3; > 100 µM (inactive) in the assay on HT-29; > 100 µM (inactive) with SF-539. Besides, the GI50 with MDA-MB-435 was > 100 µM (inactive); with OVCAR-5 it was > 100 µM (inactive); in the assay with NCI-H460, > 100 µM (inactive); in the assay on HCT-15, greater than 100 µM; with U-251 it was > 100 µM (inactive); with IGROV-1, > 100 µM (inactive). For the same molecule, the GI50 in the assay on ACHN and with Hs-578T was > 100 µM (inactive) throughout.
As for `COC(=O)CN(CC(=O)NCCCBr)C1CCCCC1N(CC(=O)OC)CC(=O)OC` (stereo not given), the GI50 with HCC 2998 is > 100 µM (inactive); in the assay with UACC-257, > 100 µM (inactive); in the assay with EKVX it was > 100 µM (inactive); in the assay on RPMI-8226 it was > 100 µM (inactive); in the assay on SK-OV-3 it was 32.3 µM (inactive); with NCI-H522 it was > 100 µM (inactive). Further, the GI50 with T47D, with TK-10, in the assay with MDA-MB-231, in the assay on OVCAR-3, with HT-29 and in the assay with SF-539 was > 100 µM (inactive) in each case. For the same molecule, the GI50 with MDA-MB-435 was > 100 µM (inactive); in the assay on OVCAR-5, > 100 µM (inactive); with NCI-H460, > 100 µM (inactive); in the assay with HCT-15, greater than 100 µM; in the assay on U-251 it was > 100 µM (inactive); with IGROV-1, > 100 µM (inactive). The GI50 was > 100 µM (inactive) in the assay on ACHN and 53.7 µM (inactive) in the assay on Hs-578T.
Turning to `C/C=C(/C)C(=O)O[C@@H]1c2c(C)coc2C[C@H]2CC[C@H](O)[C@H](C)[C@]21C`, the GI50 was > 100 µM (inactive) with HCC 2998; 34.2 µM (inactive) with UACC-257; > 100 µM (inactive) in the assay on EKVX; 31.3 µM (inactive) with RPMI-8226; > 100 µM (inactive) in the assay with SK-OV-3; 60 µM (inactive) in the assay on NCI-H522. Further, the GI50 in the assay with T47D was 68.9 µM (inactive); in the assay on TK-10, 64.6 µM (inactive); with MDA-MB-231, 71.6 µM (inactive); in the assay on OVCAR-3 it was 27 µM (inactive); in the assay with HT-29, 47.1 µM (inactive); in the assay with SF-539, 31.9 µM (inactive). Moreover, the GI50 in the assay with MDA-MB-435 was 38.5 µM (inactive); in the assay with OVCAR-5, > 100 µM (inactive); in the assay on NCI-H460, > 100 µM (inactive); with HCT-15, 78.5 µM; in the assay on U-251, > 100 µM (inactive); in the assay with IGROV-1, 43.3 µM (inactive). The GI50 with ACHN was 36.9 µM (inactive); with Hs-578T, 64.7 µM (inactive).
Take `C[n+]1c2ccccc2c(C(=O)Nc2ccc(S(=O)(=O)N=C(N)N)cc2)c2ccccc21`: the GI50 in the assay on HCC 2998, in the assay on UACC-257, in the assay on EKVX, in the assay on RPMI-8226, with SK-OV-3 and with NCI-H522 was > 100 µM (inactive) each time. The GI50 was > 100 µM (inactive) in the assay with T47D; > 100 µM (inactive) with TK-10; 23.2 µM (inactive) in the assay on MDA-MB-231; > 100 µM (inactive) in the assay with OVCAR-3; > 100 µM (inactive) in the assay with HT-29; > 100 µM (inactive) in the assay with SF-539. Further, the GI50 in the assay with MDA-MB-435 was > 100 µM (inactive); in the assay on OVCAR-5, > 100 µM (inactive); in the assay with NCI-H460, > 100 µM (inactive); in the assay on HCT-15, greater than 100 µM; in the assay with U-251 it was > 100 µM (inactive); in the assay on IGROV-1 it was 35.6 µM (inactive). The GI50 in the assay with ACHN and in the assay with Hs-578T was > 100 µM (inactive) in each case.
Turning to `CC12CCC(Br)C(C)(C)C1CC=C1C(=O)OCC1O2` (stereo not given), the GI50 in the assay on HCC 2998 is 12.1 µM (inactive); with UACC-257, 12.4 µM (inactive); with EKVX it was 16.5 µM (inactive); in the assay with RPMI-8226, 2.73 µM (inactive); in the assay with SK-OV-3 it was 9.06 µM (inactive); in the assay with NCI-H522 it was 3.52 µM (inactive). In addition, the GI50 with T47D is 15.4 µM (inactive); with TK-10 it was 14 µM (inactive); in the assay with MDA-MB-231, 14.4 µM (inactive); in the assay on OVCAR-3 it was 16.9 µM (inactive); with HT-29, 19 µM (inactive); with SF-539, 60.8 µM (inactive). For the same molecule, the GI50 in the assay on MDA-MB-435 was 12 µM (inactive); in the assay with OVCAR-5, 18.7 µM (inactive); in the assay on NCI-H460, 14.6 µM (inactive); in the assay on HCT-15, 12.1 µM; in the assay on U-251, 9.77 µM (inactive); with IGROV-1, 3.72 µM (inactive). For the same molecule, the GI50 in the assay with ACHN is 12.5 µM (inactive); in the assay on Hs-578T, 10.9 µM (inactive).
`COC1/C=C/C(C)C(C(C)C(OC)C(C)CCC(=O)C(C)C(C/C=C/N(C)C=O)OC)OC(=O)/C=C/C=C(\C)CC(OC)C(OC)C2=CC(=O)O[C@@H](C(C)C(OC)CC(OC)/C=C/C(C)C(O)C1)[C@H]2O` (stereo not given in full): the GI50 was 0.0716 µM (active) with HCC 2998; 0.13 µM (active) in the assay with UACC-257; 0.154 µM (active) in the assay on EKVX; 0.0356 µM (active) in the assay on RPMI-8226; 0.122 µM (active) with SK-OV-3; 0.119 µM (active) with NCI-H522. The GI50 in the assay on T47D was 0.208 µM (active); in the assay on TK-10 it was 0.0745 µM (active); with MDA-MB-231 it was 0.0773 µM (active); in the assay with OVCAR-3, 0.0681 µM (active); in the assay on HT-29, 0.0615 µM (active); with SF-539, 0.128 µM (active). Moreover, the GI50 was 0.249 µM (active) in the assay with MDA-MB-435; 0.163 µM (active) in the assay on OVCAR-5; 0.0759 µM (active) in the assay on NCI-H460; 0.0479 µM with HCT-15; 0.111 µM (active) in the assay with U-251; 0.119 µM (active) with IGROV-1. Further, the figures for the GI50 in the assay with ACHN and with Hs-578T were 0.0914 µM (active) and 0.0336 µM (active), respectively.
With `CC(C)c1cc2c(c(O)c1O)[C@@]1(C(=O)O)CCCC(C)(C)[C@@H]1CC2` [CARNOSIC ACID], the GI50 in the assay on HCC 2998 is 13.2 µM (inactive); in the assay on UACC-257, 14.6 µM (inactive); with EKVX, 15.9 µM (inactive); in the assay on RPMI-8226 it was 7.48 µM (inactive); in the assay on SK-OV-3, 37.3 µM (inactive); in the assay on NCI-H522, 13 µM (inactive). Besides, the GI50 with T47D was 18.4 µM (inactive); in the assay on TK-10, 13.4 µM (inactive); in the assay with MDA-MB-231, 31.8 µM (inactive); with OVCAR-3 it was 22.7 µM (inactive); in the assay with HT-29, 16.3 µM (inactive); with SF-539, 18.7 µM (inactive). Moreover, the GI50 is 16.3 µM (inactive) in the assay with MDA-MB-435; 20.8 µM (inactive) in the assay on OVCAR-5; 19.9 µM (inactive) with NCI-H460; 27.3 µM with HCT-15; 13.8 µM (inactive) in the assay with U-251; 19.4 µM (inactive) in the assay with IGROV-1. Besides, the values for the GI50 in the assay with ACHN and in the assay on Hs-578T were 13.4 µM (inactive) and 24.1 µM (inactive), respectively.

The values are drawn from ChEMBL document CHEMBL1201862, “PubChem BioAssay data set” (2004).
